The source of these data is patent US20220105147A1, “CROTON LECHLERI COMPOSITIONS FOR USE IN THE TOPICAL TREATMENT OF ACUTE BACTERIAL SKIN OR SKIN STRUCTURE INFECTION” (priority 2019, published 2022).

Values after ≈ are worked out from the molar mass of the structure shown.

Assay [1] has as its system Enterococcus faecalis (ATCC 29212). Put plainly: Agar Well Diffusion Assay (K-B disks). As to conditions: EFAECL; K-B disk, 25 uL, dilutions in DMSO; width of zone; one value per test date. It is filed as cell-based. The protocol: An Agar Well Diffusion Assay pilot evaluation of AB-101 BRM was conducted to seek an initial signal of the activity of AB-101 BRM against various bacteria. AB-101 BRM was tested against the following bacterial species: • Streptococcus pneumoniae (ATCC 49619) (SPNEU) Gram (+) • Streptococcus pyogenes (clinical isolate) (GABHS) Gram (+) • Enterococcus faecalis (ATCC 29212) (EFAECL) Gram (+) • Coagulase-negative Staphylococcus (clinical isolate) (CNS) Gram (+) • Escherichia coli (ATCC 25922) (EC) Gram (−) • Pseudomonas aeruginosa (ATCC 27853) (PAER) Gram (−) • Klebsiella pneumoniae (ATCC 700603) (KPNEU) Gram (−) • Staphylococcus aureus (ATCC […]) (SAUR) Gram (+) • Methicillin-resistant Staphylococcus aureus (ATCC 49476) (MRSA) Gram (+)
Isolates were subcultured the day before the Agar Well Diffusion Assay was performed. On the day of the assay, a bacterial suspension (0.08-0.12 MacFarland units) of each bacteria isolate was made in Trypticase Soy Broth (TSB), and these suspensions were used to plate a lawn of bacterial organisms on Mueller-Hinton agar or Mueller-Hinton sheep's blood agar. A control antibiotic Kirby-Bauer (K-B) disk plus K-B disks containing 25 uL of AB-101 dilutions were placed on the plates, and the plates were incubated overnight. The next day, the width of the zone of growth inhibition surrounding each K-B disk was recorded (in mm). […]
In general terms: In agar diffusion tests the substance spreads into inoculated agar from a disc or well.

Assay [2] has as its system MSSA and MRSA strains (Mupirocin-resistant and Mupirocin-susceptible). In words: In vitro MIC, panel of MSSA and MRSA strains. As to conditions: for MIC: Staphylococcus aureus. It is filed as cell-based, Staphylococcus aureus. From the text:
(§1) Measures included the minimum inhibitory concentration (MIC) which is the lowest concentration of AB-101 that prevents visible growth of the bacterium or pathogen, and minimum bactericidal concentration (MBC) which is the lowest concentration of an antibacterial agent required to kill a bacterium.

Assay [3] shares this test system. In words: In vitro MBC, panel of MSSA and MRSA strains. The assay is classed as cell-based, Staphylococcus aureus. As to conditions: purified extract of taspine.
Text: as §1

Where [4] appears, read: ATCC 29213 / MRSA / MSSA, strain ATCC 29213, QC control.

For the compound `CC1(C)S[C@@H]2[C@H](NC(=O)[C@H](N)c3ccccc3)C(=O)N2[C@H]1C(=O)O` [AMP, Ampicillin], the “Zone of Inhibition (MM)” value in assay [1] was “AMP 8 MM”.

In the case of `COc1cccc(OC)c1C(=O)N[C@@H]1C(=O)N2[C@@H]1SC(C)(C)[C@@H]2C(=O)O` [Methicillin], the minimum inhibitory concentration (MIC) in assay [2] (setting [4]) lay within 1 to 2 µg/mL (≈ 2.63 to 5.26 µM).

`C/C(=C\C(=O)OCCCCCCCCC(=O)O)C[C@@H]1OC[C@H](C[C@@H]2O[C@H]2[C@@H](C)[C@H](C)O)[C@@H](O)[C@H]1O` [Mupirocin]: the MIC is 0.25 to 0.5 µg/mL (≈ 0.499 to 0.999 µM) in assay [2] (setting [4]); more than 256 µg/mL in assay [2] (strain 1674606, MupirocinR, MSSA); more than 256 µg/mL in assay [2] (strain 1674607, MupirocinR, MRSA); 0.25 to 0.5 µg/mL (≈ 0.499 to 0.999 µM) in assay [2] (strain CDC 227, MupirocinS, MRSA); not above 0.25 µg/mL in assay [2] (strain CDC 462, MupirocinS, MSSA); not above 0.25 µg/mL in assay [2] (strain CDC 464, MupirocinS, MSSA). Further, the MIC is not above 0.25 µg/mL in assay [2] (strain CDC 484, MupirocinS, MSSA) and not above 0.25 µg/mL in assay [2] (strain CDC 485, MupirocinS, MSSA).

As to `COc1ccc2c(=O)oc3c(OC)cc(CCN(C)C)c4c(=O)oc1c2c34` [Taspine, taspine], in assay [2] (highest concentration tested 50% relative to AB-101 = 10 μg/mL), the “activity against MSSA and MRSA (MIC)” value is “does not have activity”. Also, in assay [3], the “activity against MSSA and MRSA (MBC)” value is “does not have activity”.

As for Gentamicin [GM], the “Zone of Inhibition (MM)” value in assay [1] is “GM 5 MM”.

One may read the MIC as the lowest concentration that inhibits growth of the organism. A low value points to inhibition by little substance.
